Data on twelve molecules can be found in patent US9376433B2, “(AZA-)isoquinolinone derivatives” (MERCK PATENT GMBH, priority 2012, dated 2016).

Test [1] has as its target T1, Tankyrase-2 (Homo sapiens, UniProt Q9H2K2).
T1 construct: GST-tagged Tankyrase-2 (873-1166 aa)
The test is described as follows: Tankyrase 2 autoparsylation assay (HTRF enzyme assay). The format is biochemical. To be noted: GST-tagged Tankyrase-2 (873-1166 aa). How it is done:
(§1) Biochemical activity testing of Tankyrase 1 and 2: Autoparsylation assay
(§2) The autoparsylation assay is run in two steps: the enzymatic reaction in which GST-tagged Tankyrase-1, resp Tankyrase-2 transferred biotinylated ADP-ribose to itself from biotinylated NAD as co-substrate and the detection reaction where a time resolved FRET between cryptate labelled anti-GST bound to the GST tag of the enzyme and Xlent® labelled-streptavidin bound the biotin-parsylation residue is analysed. The autoparsylation activity was detectable directly via the increase in HTRF signal.
(§3) The autoparsylation assay is performed as 384-well HTRF® (Cisbio, Codolet, France) assay format in Greiner low volume nb 384-well microtiter plates and is used for high throughput screen. 250 nM GST-tagged Tankyrase-1 (1023-1327 aa), respectively about 250 nM GST-tagged Tankyrase-2 (873-1166 aa) and 5 μM bio-NAD (Biolog, Life science Inst., Bremen, Germany) as co-substrate are incubated in a total volume of 5 μl (50 mM HEPES, 4 mM Mg-chloride, 0.05% Pluronic F-68, 1.4 mM DTT, 0.5% DMSO, pH 7.7) in the absence or presence of the test compound (10 dilution concentrations) for 90 min at 30° C. The reaction is stopped by the addition of 1 μl 50 mM EDTA solution. 2 μl of the detection solution (1.6 μM SA-Xlent® (Cisbio, Codolet, France), 7.4 nM Anti-GST-K® (Eu-labelled anti-GST, Cisbio, Codolet, France) in 50 mM HEPES, 800 mM KF, 0.1% BSA, 20 mM EDTA, 0.1% CHAPS, pH 7.0) are added. After 1 h incubation at room temperature the HTRF is measured with an Envision multimode reader (Perkin Elmer LAS Germany GmbH) at excitation wavelength 340 nm (laser mode) and emission wavelengths 615 nm and 665 nm. The ratio of the emission signals is determined. The full value used is the inhibitor-free reaction. The pharmacological zero value used is XAV-939 (Tocris) in a final concentration of 5 μM. The inhibitory values (IC50) are determined using either the program Symyx Assay Explorer® or Condosseo® from GeneData.

Test [2] addresses T2, Tankyrase-1 (Homo sapiens, UniProt O95271).
T2 construct: GST-tagged Tankyrase-1 (1023-1327 aa)
The test is described as follows: Tankyrase 1 autoparsylation assay (HTRF enzyme assay). Particulars: GST-tagged Tankyrase-1 (1023-1327 aa). In kind it is biochemical. The procedure: as §1, §2, §3

Test [3] deals with DLD-1-cancer cells. Particulars: DLD-1 cells; Huang et al., 2009, Nature; cited from earlier work.
The subject of test [4] is tankyrase 1/2. The test is described as follows: Cellular inhibition of tankyrase: increase of Axin2 level in DLD1 cells (Luminex). The format is cell-based. To be noted: DLD1 colon carcinoma cells, 24 hours, read-out: EC50 tankyrase 1/2 (cell assay). The procedure:
Measurement of Cellular Inhibition of Tankyrase
Since Tankyrases have been described to modulate cellular level of Axin2 (Huang et al., 2009; Nature) the increase of Axin2 level is used as read-out for determination of cellular inhibition of Tankyrases in a Luminex based assay.
Cells of the colon carcinoma cell line DLD1 are plated in 96 well plates with 1.5×10^4 cells per well. Next day, cells are treated with a serial dilution of test compound in seven steps as triplicates with a final DMSO concentration of 0.3%. After 24 hours, cells are lysed in lysis buffer (20 mM Tris/HCl pH 8.0, 150 mM NaCl, 1% NP40, 10% Glycerol) and lysates are cleared by centrifugation through a 96 well filter plate (0.65 μm). Axin2 protein is isolated from cell lysates by incubation with a monoclonal anti-Axin2 antibody (R&D Systems #MAB6078) that is bound to fluorescent carboxybeads. Then, bound Axin2 is specifically detected with a polyclonal anti-Axin2 antibody (Cell Signaling #2151) and an appropriate PE-fluorescent secondary antibody. The amount of isolated Axin2 protein is determined in a Luminex^200 machine (Luminex Corporation) according to the manufacturer's instruction by counting 100 events per well. Inhibition of Tankyrase by test compounds results in higher levels of Axin2 which directly correlates with an increase of detectable fluorescence. As controls cells are treated with solvent alone (neutral control) and with a Tankyrase reference inhibitor IWR-2 (3E-06 M) which refers as control for maximum increase of Axin2. For analysis, the obtained data are normalized against the untreated solvent control and fitted for determination of the EC50 values using the Assay Explorer software (Accelrys).

The target of test [5] is T3, TNKS1 (Homo sapiens, UniProt O95271).
T3 construct: GST-tagged Tnks-1 (1023-1327 aa, prepared in-house); made in house
T3 sequence (O95271 1023-1327): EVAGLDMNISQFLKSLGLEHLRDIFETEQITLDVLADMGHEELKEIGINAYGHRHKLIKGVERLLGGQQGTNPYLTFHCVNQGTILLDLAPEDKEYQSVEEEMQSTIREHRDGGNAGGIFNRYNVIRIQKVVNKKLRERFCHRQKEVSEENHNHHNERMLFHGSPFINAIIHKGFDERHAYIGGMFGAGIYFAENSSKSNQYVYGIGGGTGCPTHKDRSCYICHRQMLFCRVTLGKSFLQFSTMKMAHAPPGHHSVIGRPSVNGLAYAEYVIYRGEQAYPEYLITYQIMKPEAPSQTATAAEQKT
Nature of the test: TNKS1 activity ELISA (autoparsylation assay). The format is biochemical. To be noted: GST-tagged Tnks-1 (1023-1327 aa), luminescence. How it is done: Description of the TNKS1 and TNKS2 ELISA Assay
Biochemical activity testing of TNKS 1 and 2: activity ELISA (Autoparsylation assay)
For analysis of autoparsylation activity of TNKS 1 and 2 an activity ELISA iss performed: In the first step GST tagged TNKS is captured on a Glutathione coated plate. Then the activity assay with biotinylated NAD is performed in the absence/presence of the compounds. During the enzymatic reaction GST tagged TNKS transfers biotinylated ADP-ribose to itself from biotinylated NAD as co-substrate. For the detection streptavidin-HRP conjugate is added that binds to the biotinylated TNKS and is thereby captured to the plates. The amount of biotinylated resp. autoparsylated TNKS is detected with a luminescence substrate for HRP. The level of the luminescence signal correlats directly with the amount of autoparsylated TNKS and therefore with activity of TNKS.
The acitivity ELISA is performed in 384 well Glutathione coated microtiter plates (Express capture Glutathione coated plate, Biocat, Heidelberg, Germany). The plates are pre-equilibrated with PBS. Then the plates are incubated with 50 μl 20 ng/well GST-tagged Tnks-1 (1023-1327 aa, prepared in-house), respectively GST-tagged Tnks-2 (873-1166 aa, prepared in-house) in assay buffer (50 mM HEPES, 4 mM Mg-chloride, 0.05% Pluronic F-68, 2 mM DTT, pH 7.7) overnight at 4° C. The plates are washed 3 times with PBS-Tween-20. The wells are blocked by incubation at room temperature for 20 minutes with 50 μl blocking buffer (PBS, 0.05% Tween-20, 0.5% BSA). Afterwards the plates are washed 3 times with PBS-Tween-20. The enzymatic reaction is performed in 50 μl reaction solution (50 mM HEPES, 4 mM Mg-chloride, 0.05% Pluronic F-68, 1.4 mM DTT, 0.5% DMSO, pH 7.7) with10 μM bio-NAD (Biolog, Life science Inst., Bremen, Germany) as co-substrate in the absence or presence of the test compound (10 dilution concentrations) for 1 hour at 30° C. The reaction is stopped by 3 times washing with PBS-Tween-20. For the detection 50 μl of 20 ng/μl Streptavidin, HRP conjugate (MoBiTec, Göttingen, Germany) in PBS/0.05% Tween-20/0.01% BSA are added and the plates are incubated for 30 minutes at room temperature. After three times washing with PBS-Tween-20 50 μl of SuperSignal ELISA Femto Maximum sensitivity substrate solution (ThermoFisherScientific (Pierce), Bonn, Germany) are added. Following a 1 minute incubation at room temperature luminescence signals are measured with an Envision multimode reader (Perkin Elmer LAS Germany GmbH) at 700 nm. The full value used is the inhibitor-free reaction. The pharmacological zero value used is XAV-939 (Tocris) in a final concentration of 5 μM. The inhibitory values (IC50) are determined using either the program Symyx Assay Explorer® or Condosseo® from GeneData.

T1 sequence (Q9H2K2 873-1166): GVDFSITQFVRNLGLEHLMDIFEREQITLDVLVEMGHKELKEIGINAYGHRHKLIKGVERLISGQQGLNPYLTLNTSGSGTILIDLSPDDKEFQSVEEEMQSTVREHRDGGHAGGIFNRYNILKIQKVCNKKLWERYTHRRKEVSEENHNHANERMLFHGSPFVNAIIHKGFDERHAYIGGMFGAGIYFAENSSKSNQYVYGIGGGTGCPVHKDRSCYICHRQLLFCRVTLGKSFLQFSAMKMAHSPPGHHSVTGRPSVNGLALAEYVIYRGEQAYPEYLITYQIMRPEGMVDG
T2 sequence (O95271 1023-1327): as the sequence (O95271 1023-1327) above

For the molecule `Cc1ccc(-c2cc3c(C(F)(F)F)cccc3c(=O)[nH]2)cc1` [Compound A30, 3-(p-tolyl)-5-(trifluoromethyl)-2H-isoquinolin-1-one], the IC50 in test [1] lay within 3000 to 50000 nM; in test [2], 300 to 3000 nM.

For `Oc1nc(-c2ccc(C(F)(F)F)cc2)nc2c1CSCC2` [XAV939], the “growth of DLD-1-cancer cells” value in test [3] was “inhibits growth”.

For the molecule `CC1(c2ccc(-c3cc4ccc(F)cc4c(=O)[nH]3)cc2)CCCO1` (stereo not drawn) [Compound A21, 7-fluoro-3-[4-(2-methyltetrahydrofuran-2-yl)phenyl]-2H-isoquinolin-1-one], the EC50 in test [4] fell in the range of 300 to 3000 nM. For the same molecule, the IC50 in test [1] was 300 to 3000 nM; in test [2] it was under 300 nM.

On to `CC(C)(F)c1ccc(-c2cc3ccccc3c(=O)[nH]2)cc1` [Compound A13, 3-[4-(1-fluoro-1-methyl-ethyl)-phenyl]-2H-isoquinolin-1-one], for which, in test [4], the EC50 is 300 to 3000 nM. The IC50 is 300 to 3000 nM in test [1] and under 300 nM in test [2].

With `COC(=O)c1ccc(-c2cc3ccccc3c(=O)[nH]2)cc1` [Compound A2, 4-(1-oxo-1,2-dihydro-isoquinolin-3-yl)-benzoic acid methyl ester], in test [4], the EC50 was in the range of 300 to 3000 nM. In addition, the IC50 in test [1] and in test [2] was under 300 nM in each case.

Regarding `Cn1cc(-c2ccc(-c3cc4cnccc4c(=O)[nH]3)cc2)cn1` [Compound A19, 3-[4-(1-Methyl-1H-pyrazol-4-yl)-phenyl]-2H-[2,6]naphthyridin-1-one], the IC50 in test [1] and in test [2] was 300 to 3000 nM in each case.

Turning to `COC(=O)c1ccc(-c2cc3ccc(F)cc3c(=O)[nH]2)cc1` [Compound A4, 4-(7-Fluoro-1-oxo-1,2-dihydro-isoquinolin-3-yl)-benzoic acid methyl ester], the EC50 in test [4] lay in the range of 300 to 3000 nM. Also, the IC50 in test [1] and in test [2] was 300 to 3000 nM throughout.

On to `Cc1ccc2cc(-c3ccc(C(C)(C)O)cc3)[nH]c(=O)c2c1` [Compound A7, 3-[4-(1-hydroxy-1-methyl-ethyl)-phenyl]-7-methyl-2H-isoquinolin-1-one], for which, in test [4], the EC50 lay within 300 to 3000 nM. The IC50 in test [1] and in test [2] was 300 to 3000 nM in each case.

In the case of `CC(C)(C)c1ccc(-c2cc3cnccc3c(=O)[nH]2)cc1` [Compound A1, 3-(4-tert-butyl-phenyl)-2H-[2,6]naphthyridin-1-one], the IC50 in test [5] is under 300 nM; in test [1], 300 to 3000 nM; in test [2], under 300 nM. Also, the EC50 in test [4] is under 300 nM.

In the case of `Cn1cc(-c2ccc(-c3cc4ccc(Cl)cc4c(=O)[nH]3)cc2)cn1` [Compound A32, 7-chloro-3-[4-(1-methyl-1H-pyrazol-4-yl)-phenyl]-2H-isoquinolin-1-one], in test [4], the EC50 was 300 to 3000 nM. Moreover, the IC50 was 300 to 3000 nM in test [1] and under 300 nM in test [2].

`CC(C)(O)c1ccc(-c2cc3ccc(Cl)cc3c(=O)[nH]2)cc1` [Compound A25, 7-chloro-3-[4-(1-hydroxy-1-methyl-ethyl)phenyl]-2H-isoquinolin-1-one]: the EC50 in test [4] fell in the range of 300 to 3000 nM. For the same molecule, the IC50 in test [1] is 300 to 3000 nM; in test [2] it was under 300 nM.

Turning to `O=c1[nH]c(-c2ccc(CO)cc2)cc2ccccc12` [Compound A8, 3-(4-hydroxymethyl-phenyl)-2H-isoquinolin-1-one], the EC50 in test [4] was under 300 nM. For the same molecule, the IC50 in test [1] was 300 to 3000 nM; in test [2] it was under 300 nM.
